The source of these data is US10086066B2, “Tissue targeted antigenic activation of the immune response to treat cancers” (Qu Biologics Inc., priority 2004, dated 2018).

Each structure is given as a SMILES string.

The test system of this assay is 4T1 mammary carcinoma cells. Kind of assay: Indomethacin efficacy study QB35, 4T1 mammary carcinoma (tumour volume, CD11b+ cells). Format: in vivo, mouse (Balb/c). Here is the method: In an effort to examine the efficacy of combining antigenic composition treatment with indomethacin. Briefly, experiments were designed wherein there were 10 mice in each of 4 groups with all treatments beginning on day 4 after tumour inoculation. All mice (Balb/c female) received 50,000 4T1 mammary carcinoma cells subQ on day 0. Thereafter, the 4 groups were treated as follows: 1) Indomethacin daily (in drinking water)+PBS subQ every 2 days; 2) Indomethacin daily (in drinking water)+S. aureus SSI subQ every 2 days; 3) Control vehicle daily (in drinking water)+PBS subQ every 2 days; and 4) Control vehicle daily (in drinking water)+S. aureus SSI subQ every 2 days.

On to `COc1ccc2c(c1)c(CC(=O)O)c(C)n2C(=O)c1ccc(Cl)cc1` [Indomethacin], for which the “frequency of CD11b+ cells in the tumors relative to the control” value (day 11, indomethacin daily in drinking water, with PBS or S. aureus SSI (FIG. 35)) is listed as “significantly increased”. Further, where the note is “day 22 (FIG. 36)”, the “CD11b+ cells in the tumours” value is “increase”.
